Source: patent publication US5043343A (priority 1989, dated 1991)
Structures can show the parent of a compound that is named as a salt.

Key:
[1] = molecular target: muscarinic receptors (3H-QNB site, cerebral cortex); type: binding, Hooded Lister rats; conditions: 0.27nM 3H-QNB, tris buffer pH 7.7, 37° C., 30 min; rat cerebral cortex
[2] = molecular target: muscarinic receptors (3H-OXO-M site, cerebral cortex); assay: Radio ligand binding: displacement of muscarinic agonist 3H-Oxotremorine-M (3H-OXO-M), rat cerebral cortex membranes; design: species or system Hooded Lister rats; conditions: 2 nM 3H-OXO-M, 2mM magnesium chloride, tris buffer pH 7.7, 37° C., 30 min

In the case of Nc1noc(C23CCCN(C2)C3)n1 [Example E1, 5-(3-Amino-1,2,4-oxadiazol-5-yl)-1-azabicyclo[3.1.11]heptane], the IC50 [1] is reported as 11000 nM and the IC50 [2] is reported as 11 nM.

Cc1noc(C23CCCN(C2)C3)n1 [Example E2, 5-(3-Methyl-1,2,4-oxadiazol-5-yl)-1-azabicyclo[3.1.1]heptane oxalate salt] was tested, and the IC50 [1] was 5000 nM and the IC50 [2] was 15 nM.

c1ncc(C23CCCN(C2)C3)o1 [Example E3, 5-(1,3-Oxazol-5-yl)-1-azabicyc[3.1.1]heptane oxalate salt] showed an IC50 [1] of 6250 nM and an IC50 [2] of 37 nM.

With c1coc(C23CCCN(C2)C3)n1 [Example E4, 5-(1,3-Oxazol-2-yl)-1-azabicvclo[3.1.1]heptane oxalate salt] the IC50 [1] was 60000 nM and the IC50 [2] was 540 nM.

With CCc1noc(C23CCCN(C2)C3)n1 [Example E5, 5-(3-Ethyl-1.2.4-oxadiazol-5-yl)-1-azabicyclo[3.1.11]-heptane oxalate salt] the IC50 [1] was 5200 nM and the IC50 [2] was 71 nM.

Compound CCCc1noc(C23CCCN(C2)C3)n1 [Example E6, 5-(3-Propyl-1,2,4-oxadiazol-5-yl)-1-azabicyclo[3.1.11]heptane oxalate salt] has an IC50 [1] of 1700 nM and an IC50 [2] of 40 nM.

With C1CN2CC(c3nc(C4CC4)no3)(C1)C2 [Example E7, 5-(3-Cyclopropyl-1,2,4-oxadiazol-5-yl)-1-azabicyclo-[3.1.1]heptane oxalate salt] the IC50 [1] was 580 nM and the IC50 [2] was 62 nM.

Work on CCCCc1noc(C23CCCN(C2)C3)n1 [Example E8, 5-(3-Butyl-1,2,4-oxadiazol-5-yl)-1-azabicyclo[3.1.11]heptane oxalate salt] yielded an IC50 [1] of 1950 nM and an IC50 [2] of 49 nM.

COCc1noc(C23CCCN(C2)C3)n1 [Example E9, 5-(3-Methoxymethyl-1,2,4-oxadiazol-5-yl)-1-azabicyclo-[3.1.11]heptane oxalate salt] was tested, and the IC50 [1] was 13000 nM and the IC50 [2] was 178 nM.

For CCCCCc1noc(C23CCCN(C2)C3)n1 [Example E10, 5-(3-Pentyl-1,2,4-oxadiazol-5-yl)-1-azabicyclo[3.1.1]heptane oxalate salt], the IC50 [1] was 2400 nM and the IC50 [2] was 141 nM.

Compound C/C=C/Cc1noc(C23CCCN(C2)C3)n1 [Example E11, E-5-(3-But-2-enyl-1,2,4-oxadiazol-5-yl)-1-azabicyclo-[3.1.11]heptane oxalate salt] has an IC50 [1] of 1850 nM and an IC50 [2] of 165 nM.

Cc1nnc(C23CCCN(C2)C3)o1 [Example E13, 5-(2-Methyl-1,3,4-oxadiazol-5-yl)-1-azabicyclo[3 1.1]heptane oxalate salt] showed an IC50 [1] of 16500 nM and an IC50 [2] of 207 nM.

CO/N=C/C12CCCN(C1)C2 [Example E14, oxalate salt] was tested, and the IC50 [1] was 24000 nM and the IC50 [2] was 109 nM.

With CON=C(C)C12CCCN(C1)C2 [Example E15, E and Z-5-Acetyl-1-azabicyclo[3.1.1]heptane O-methyloxime oxalate salt] the IC50 [1] was 58000 nM and the IC50 [2] was 290 nM.
